For one assay, the system named is H1299 cells. The experiment in a line: in vitro antiproliferation assay, H1299 (lung). The class given is cell-based. As for the experimental part:
(§1) The IC50 values of various compounds against a various different tumor cell lines were determined using standard in vitro antiproliferation assays. The tumor cell lines tested were as follows: A549 (lung); H1299 (lung), ACHN (kidney/p53 wt), CAKI (renal cell carcinoma), NCI-H460 (lung); HCT116 (colon/p53w0; HELA (cervix/p53 wt), HUH7 (liver/p53 wt), HUVEC (primary endothelial), LNCAP (prostate), HT-29 (colon); MCF-7 (breast); MCF-7 (breast/ER positive), MDA MB435S (breast); MDA MB231 (breast/ER negative), DU145 (prostate); BxPC-3 (pancreatic); SKOV-3 (ovarian); HepG2 (hepatic), NDHF primary normal human dermal fibroblast), SKMEL28 (breast/p53mut), SKMEL5 (breast/p53 wt), U20S (bone) and PC3 (prostate). […] A blank indicates the specified compound was not tested against the specified cell line.

The subject of a further assay is A549 cells. The experiment in a line: in vitro antiproliferation assay, A549 (lung). The class given is cell-based. Here is the method:
as §1

Where [1] appears, read: in vitro antiproliferation, H1299 (lung) cells, Table 4, compounds with no designated stereochemistry tested as racemate.
Setting [2] is: in vitro antiproliferation, A549 (lung) cells, Table 4, compounds with no designated stereochemistry tested as racemate.
The mark [3] stands for this setting: IC50 class against H1299 (lung) tumor cells.
[4] abbreviates: IC50 class against A549 (lung) tumor cells.
The mark [5] stands for this setting: Table 5, in vitro antiproliferation, H1299 (lung) cells.
Setting [6] is: Table 5, in vitro antiproliferation, A549 (lung) cells.
Where [7] appears, read: Homo sapiens, NCI-H1299, H1299 (lung) cells.
[8] abbreviates: Homo sapiens, A549 (lung) cells.
Setting [9] is: H1299 (lung) cells, antiproliferation.
Where [10] appears, read: A549 (lung) cells, antiproliferation.
Setting [11] is: Table 7, in vitro antiproliferation, H1299 (lung) cells.
Setting [12] is: Table 7, in vitro antiproliferation, A549 (lung) cells.
Where [13] appears, read: Homo sapiens, NCI-H1299, IC50 class against H1299 (lung) tumor cells.
The mark [14] stands for this setting: Homo sapiens, IC50 class against A549 (lung) tumor cells.
The mark [15] stands for this setting: H1299 (lung) cells, in vitro antiproliferation.
[16] abbreviates: A549 (lung) cells, in vitro antiproliferation.

Structures are written as SMILES. A value given as a limit tells only on which side of the number the result lay.

Consider `COc1cc(Nc2ncc(F)c(Nc3ccc4c(c3)NC(=O)C(C)S4(=O)=O)n2)cc(OC)c1` (racemic) [compound 250], for which the IC50 in the assay with H1299 cells (setting [1]) and with A549 cells (setting [2]) was ≤ 20 µM each time.

Turning to `Cc1cc(Nc2ncc(F)c(NC3CCCC3)n2)cnc1N1CCN(C)CC1` [compound 172], the IC50 in the assay with H1299 cells (setting [3]) and in the assay on A549 cells (setting [4]) was ≤ 20 µM each time.

`Cc1cc(C)cc(Nc2ncc(F)c(Nc3ccc4c(c3)OC(F)(F)O4)n2)c1` [compound 562]: the concentration for half-maximal inhibition (IC50) in the assay with H1299 cells (setting [5]) and in the assay with A549 cells (setting [6]) was ≤ 20 µM in each case.

With `CC1(C)Oc2ccc(Nc3nc(Nc4ccc5cnn(C(C)(C)CC6CCC6)c5c4)ncc3F)cc2NC1=O` [compound 1104], the IC50 with H1299 cells (H1299 (lung) cells) and in the assay with A549 cells (A549 (lung) cells) was ≤ 20 µM throughout.

Take `COc1cc(C)c(Nc2ncc(F)c(Nc3ccc4c(c3)NC(=O)[C@H](C)O4)n2)cc1Cl` [compound 1140]: the IC50 in the assay on H1299 cells (setting [7]) and with A549 cells (setting [8]) was > 20 µM each time.

As to `CC(=O)N1CCN(c2cccc(Nc3ncc(F)c(Nc4ccc5c(c4)OCCO5)n3)c2)CC1` [compound 550], the half-maximal inhibitory concentration (IC50) in the assay on H1299 cells (setting [5]) and with A549 cells (setting [6]) was ≤ 20 µM throughout.

As for `COC(=O)CNC(=O)c1ccc(Nc2ncc(F)c(NC3CCCC3)n2)cc1` [compound 177], the half-maximal inhibitory concentration (IC50) with H1299 cells (setting [3]) and in the assay on A549 cells (setting [4]) was ≤ 20 µM throughout.

Take `Cc1cc(Nc2ncc(F)c(Nc3ccc4c(c3)OC(F)(F)C(F)(F)O4)n2)cc(C(F)(F)F)c1` [compound 538]: the IC50 is > 20 µM with H1299 cells (setting [5]) and ≤ 20 µM with A549 cells (setting [6]).

Consider `CCOC(=O)N1CCN(c2ccc(Nc3ncc(F)c(Nc4ccc5c(n4)NCCO5)n3)cc2)CC1` [compound 604], for which the results for the 50% inhibitory concentration (IC50) in the assay with H1299 cells (setting [3]) and in the assay with A549 cells (setting [4]) were ≤ 20 µM and > 20 µM, respectively.

Consider `COc1cccc(Nc2ncc(F)c(Nc3ccc4c(c3)NC(=O)C(C)(C)O4)n2)c1C` [compound 1065], for which the values for the half-maximal inhibitory concentration (IC50) with H1299 cells (H1299 (lung) cells) and in the assay on A549 cells (A549 (lung) cells) were > 20 µM and ≤ 20 µM, respectively.

Consider `CNc1ncc(F)c(Nc2ccc3c(c2)OCCO3)n1` [compound 1044], for which the half-maximal inhibitory concentration (IC50) in the assay with H1299 cells (setting [3]) and in the assay with A549 cells (setting [4]) was > 20 µM throughout.

Consider `COc1cc(Nc2ncc(F)c(N(C)c3ccc(OC)c(Cl)c3)n2)cc(OC)c1` [compound 903], for which the half-maximal inhibitory concentration (IC50) with H1299 cells (setting [9]) and in the assay on A549 cells (setting [10]) was ≤ 20 µM each time.

As for `COC(=O)c1cc2cc(Nc3ncc(F)c(N(C)c4cc(C)c(Cl)c(C)c4)n3)ccc2o1` [compound 672], the concentration for half-maximal inhibition (IC50) in the assay with H1299 cells (setting [11]) and in the assay with A549 cells (setting [12]) was > 20 µM in each case.

In the case of `Cc1c(O)cccc1Nc1ncc(F)c(Nc2ccc3c(c2)NC(=O)CO3)n1` [compound 1063], the IC50 in the assay on H1299 cells (H1299 (lung) cells) and in the assay with A549 cells (A549 (lung) cells) was ≤ 20 µM each time.

For the molecule `COc1ccc(Nc2ncc(F)c(Nc3cccc(Nc4ncc[nH]4)c3)n2)cc1F` [compound 1051], the IC50 in the assay on H1299 cells (setting [13]) and in the assay on A549 cells (setting [14]) was ≤ 20 µM throughout.

For `COc1ccc(Nc2ncc(F)c(N(C)c3ccc4c(c3)N(C)C(=O)C(C)(C)O4)n2)cc1Cl` [compound 325], the IC50 in the assay on H1299 cells (setting [1]) and in the assay with A549 cells (setting [2]) was ≤ 20 µM in each case.

Turning to `Cc1cc(Nc2ncc(F)c(NC(C)C)n2)cnc1N1CCN(C)CC1` [compound 227], the half-inhibitory concentration (IC50) in the assay on H1299 cells (setting [3]) and in the assay on A549 cells (setting [4]) was ≤ 20 µM each time.

Consider `CCOC(=O)c1cc2cccc(Nc3ncc(F)c(N(C)c4ccc(OC)c(OC)c4)n3)c2[nH]1` [compound 666], for which the 50% inhibitory concentration (IC50) in the assay on H1299 cells (setting [11]) and with A549 cells (setting [12]) was ≤ 20 µM in each case.

For the molecule `Fc1ccc(Nc2ncc(F)c(Nc3ccc(F)c(Cl)c3)n2)cc1Cl` [compound 719], the IC50 with H1299 cells (setting [15]) and with A549 cells (setting [16]) was > 20 µM in each case.

Consider `COc1ccc(Nc2ncc(F)c(N(C)c3ccc4c(c3)NC(=O)C(C)(C)O4)n2)cc1Cl` [compound 327], for which the 50% inhibitory concentration (IC50) in the assay with H1299 cells (setting [1]) and in the assay with A549 cells (setting [2]) was ≤ 20 µM each time.

With `CNc1ncc(F)c(Nc2cc(Cl)c(OC)c(Cl)c2)n1` [compound 1160], the IC50 in the assay with H1299 cells (setting [7]) and in the assay with A549 cells (setting [8]) was ≤ 20 µM in each case.

Consider `O=C1COc2ccc(Nc3nc(Nc4cccc(-c5cnco5)c4)ncc3F)cc2N1` [compound 239], for which the IC50 in the assay on H1299 cells (setting [1]) was ≤ 20 µM; with A549 cells (setting [2]) it was > 20 µM.

`CNC(=O)c1cc2cccc(Nc3ncc(F)c(Nc4cc(OC)cc(C(F)(F)F)c4)n3)c2[nH]1` [compound 669]: the IC50 in the assay on H1299 cells (setting [11]) and in the assay on A549 cells (setting [12]) was ≤ 20 µM throughout.

As for `COc1ccc(Nc2nc(Nc3ccc4cnn(C(C)(C)CC5CCC5)c4c3)ncc2F)cc1Cl` [compound 1102], the concentration for half-maximal inhibition (IC50) in the assay on H1299 cells (H1299 (lung) cells) and in the assay on A549 cells (A549 (lung) cells) was ≤ 20 µM in each case.

As for `CC(=O)N1CCN(c2cccc(Nc3ncc(F)c(Nc4cc(C5CC5)[nH]n4)n3)c2)CC1` [compound 205], the half-inhibitory concentration (IC50) with H1299 cells (setting [13]) and in the assay on A549 cells (setting [14]) was ≤ 20 µM in each case.

For the molecule `CN1CCN(c2ccc(Nc3ncc(F)c(NC4CC(C)(C)N(C)C(C)(C)C4)n3)cc2Cl)CC1` [compound 180], the IC50 in the assay with H1299 cells (setting [3]) and in the assay with A549 cells (setting [4]) was ≤ 20 µM each time.

As for `Fc1cnc(Nc2cccc(-c3ncco3)c2)nc1Nc1ccc2c(c1)OCCO2` [compound 515], the IC50 with H1299 cells (setting [5]) and in the assay on A549 cells (setting [6]) was ≤ 20 µM each time.

As for `CCOC(=O)c1cc2cccc(Nc3ncc(F)c(Nc4ccc(OC)c(OC)c4)n3)c2[nH]1` [compound 664], the IC50 in the assay with H1299 cells (setting [11]) and with A549 cells (setting [12]) was ≤ 20 µM throughout.

`COc1cc(Nc2ncc(F)c(Nc3ccc(OC)c(OC)c3)n2)cc(OC)c1` [compound 856]: the half-inhibitory concentration (IC50) in the assay on H1299 cells (setting [15]) and in the assay with A549 cells (setting [16]) was ≤ 20 µM in each case.

Consider `CC(C)(CC1CCCCC1)n1ncc2ccc(Nc3ncc(F)c(Nc4ccc(Cl)c(Cl)c4)n3)cc21` [compound 1095], for which the IC50 in the assay with H1299 cells (H1299 (lung) cells) and in the assay with A549 cells (A549 (lung) cells) was ≤ 20 µM in each case.

Regarding `Cc1cc(Nc2ncc(F)c(Nc3ccc4c(c3)OC(F)(F)O4)n2)cc(C(F)(F)F)c1` [compound 568], the values for the IC50 with H1299 cells (setting [5]) and in the assay with A549 cells (setting [6]) were ≤ 20 µM and > 20 µM, respectively.

With `Cc1cc(Nc2ncc(F)c(NC3CCC3)n2)cnc1N1CCN(C)CC1` [compound 171], the IC50 with H1299 cells (setting [3]) and in the assay with A549 cells (setting [4]) was ≤ 20 µM in each case.

Turning to `COc1cc(Nc2ncc(F)c(Nc3ccc4c(c3)OC(F)(F)O4)n2)cc(OC)c1OC` [compound 560], the IC50 in the assay with H1299 cells (setting [5]) and in the assay on A549 cells (setting [6]) was ≤ 20 µM in each case.

`CNC(=O)c1ccc(Nc2ncc(F)c(N(C)c3ccc(OC)c(OC)c3)n2)cc1Cl` [compound 875]: the half-maximal inhibitory concentration (IC50) with H1299 cells (setting [9]) and in the assay on A549 cells (setting [10]) was ≤ 20 µM each time.

Turning to `COc1ccc(Nc2nc(Nc3cc(OC)c(Cl)cc3OC)ncc2F)cc1Cl` [compound 1158], the IC50 with H1299 cells (setting [7]) and in the assay with A549 cells (setting [8]) was ≤ 20 µM each time.

`COc1ccc(Nc2nc(Nc3cc(Cl)c(OC)c(Cl)c3)ncc2F)cc1Cl` [compound 831]: the half-maximal inhibitory concentration (IC50) in the assay with H1299 cells (setting [15]) and with A549 cells (setting [16]) was > 20 µM throughout.

Consider `COc1cc(Nc2nc(Nc3cc(OC)c(OC)c(OC)c3)ncc2F)cc(C(F)(F)F)c1` [compound 821], for which the IC50 in the assay on H1299 cells (setting [15]) and in the assay with A549 cells (setting [16]) was ≤ 20 µM throughout.

For `CCOc1ccc(Nc2ncc(F)c(Nc3ccc(OC)c(OC)c3)n2)cc1` [compound 713], the concentration for half-maximal inhibition (IC50) in the assay on H1299 cells (setting [15]) and in the assay on A549 cells (setting [16]) was ≤ 20 µM each time.

As to `COC(=O)c1cc2cccc(Nc3ncc(F)c(N(C)c4ccc5c(c4)OCCO5)n3)c2o1` [compound 661], the IC50 with H1299 cells (setting [11]) and in the assay on A549 cells (setting [12]) was > 20 µM each time.

As for `COc1c(Cl)cc(Nc2ncc(F)c(Nc3ccc(OC(F)(F)F)c(Cl)c3)n2)cc1Cl` [compound 832], the 50% inhibitory concentration (IC50) with H1299 cells (setting [15]) was > 20 µM; in the assay with A549 cells (setting [16]), ≤ 20 µM.

For the molecule `CNS(=O)(=O)c1ccc(Nc2ncc(F)c(Nc3cc(OC)cc(OC)c3)n2)cc1OC` [compound 880], the IC50 in the assay on H1299 cells (setting [9]) and in the assay with A549 cells (setting [10]) was ≤ 20 µM throughout.
